Results from patent US9044403B2, “Sporicidal hand sanitizing lotion” (Medivators Inc., priority 2008, dated 2015).

Experiment: Fragrance screen for chemical compatibility with a PAA solution
Format: physicochemical
Procedure: A number of fragrances were tested with a PAA solution to screen for chemical compatibility. […] Additionally, “Blackberry Sage Tea” fragrance in combination with the vinegar-like order from the PAA in the sample was not appealing to volunteers who agreed to sample the sample lotion formulation.

Time within which the fragrance degrades PAA, 3 to 5 days:
CC/C=C\CCO [cis-3-hexen-1-ol]
CC(=O)OCCC(C)CCC=C(C)C (stereo not drawn) [citronellyl acetate]
CC(=O)OC/C=C(/C)CCC=C(C)C [neryl acetate]
